From patent US10597388B2, “Pyridazinone herbicides” (FMC CORPORATION, priority 2014, dated 2020)

Assays:
Test in all cases: Test D controlled growth environment herbicide test, pre- and postemergence
Type in all cases: in vivo
[1] = test system: barley, spring (spring barley, Hordeum vulgare)
Excerpt: (§1) Seeds of plant species selected from bluegrass (annual bluegrass, Poa annua), blackgrass (Alopecurus myosuroides), Canada thistle (Cirsium arvense), canarygrass (Phalaris minor), chickweed (common chickweed, Stellaria media), geranium, cutleaf (cutleaf geranium, Geranium dissectum), galium (catchweed bedstraw, Galium aparine), bromegrass, downy (downy bromegrass, Bromus tectorum), field poppy (Papaver rhoeas), field violet (Viola arvensis), foxtail, green (green foxtail, Setaria viridis), deadnettle (henbit deadnettle, Lamium amplexicaule), ryegrass, Italian (Italian ryegrass, Lolium multiflorum), kochia (Kochia scoparia), lambsquarters (Chenopodium album), oilseed rape (Brassica napus), pigweed (Amaranthus retroflexus), chamomile (scentless chamomile, Matricaria inodora), Russian thistle (Salsola kali), speedwell (bird's-eye speedwell, Veronica persica), barley, spring (spring barley, Hordeum vulgare), wheat, spring (spring wheat, Triticum aestivum), buckwheat, wild (wild buckwheat, Polygonum convolvulus), mustard, wild (wild mustard, Sinapis arvensis), oat, wild (wild oat, Avena fatua), radish, wild (wild radish, Raphanus raphanistrum), windgrass (Apera spica-venti), barley, winter (winter barley, Hordeum vulgare), and wheat, winter (winter wheat, Triticum aestivum) were planted into a silt loam soil and treated preemergence with test chemicals formulated in a non-phytotoxic solvent mixture which included a surfactant.
(§2) At the same time, these species were planted in pots containing Redi-Earth® planting medium (Scotts Company, 14111 Scottslawn Road, Marysville, Ohio 43041) comprising spaghnum peat moss, vermiculite, wetting agent and starter nutrients and treated with postemergence applications of the test chemicals formulated in the same manner. Plants ranged in height from 2 to 18 cm (1- to 4-leaf stage). Treated plants and controls were maintained in a controlled growth environment for 14 to 21 d after which time all species were compared to controls and visually evaluated. Plant response ratings, summarized in Table D, are based on a scale of 0 to 100 where 0 is no effect and 100 is complete control. A dash (-) response means no test result.

[2] = test system: barley, winter (winter barley, Hordeum vulgare)
Excerpt: as §1, §2

[3] = test system: blackgrass (Alopecurus myosuroides)
Excerpt: as §1, §2

[4] = test system: bromegrass, downy (downy bromegrass, Bromus tectorum)
Excerpt: as §1, §2

[5] = test system: chamomile (scentless chamomile, Matricaria inodora)
Excerpt: as §1, §2

[6] = test system: chickweed (common chickweed, Stellaria media)
Excerpt: as §1, §2

[7] = test system: deadnettle (henbit deadnettle, Lamium amplexicaule)
Excerpt: as §1, §2

[8] = test system: field poppy (Papaver rhoeas)
Excerpt: as §1, §2

[9] = test system: foxtail, green (green foxtail, Setaria viridis)
Excerpt: as §1, §2

[10] = test system: lambsquarters (Chenopodium album)
Excerpt: as §1, §2

[11] = test system: ryegrass, Italian (Italian ryegrass, Lolium multiflorum)
Excerpt: as §1, §2

[12] = test system: wheat, spring (spring wheat, Triticum aestivum)
Excerpt: as §1, §2

[13] = test system: wheat, winter (winter wheat, Triticum aestivum)
Excerpt: as §1, §2

[14] = Postemergence, 31 g ai/ha, scale 0 to 100 (0 no effect, 100 complete control)
[15] = Postemergence, 125 g ai/ha, visual rating on scale 0 (no effect) to 100 (complete control), 14 to 21 d
[16] = Postemergence, 250 g ai/ha, scale 0 to 100 (0 no effect, 100 complete control)
[17] = Preemergence, 62 g ai/ha, scale 0 to 100 (0 no effect, 100 complete control)
[18] = Preemergence, 125 g ai/ha, scale 0 to 100 (0 no effect, 100 complete control)
[19] = Preemergence, 250 g ai/ha, scale 0 to 100 (0 no effect, 100 complete control)
[20] = postemergence, 62 g ai/ha, scale 0 to 100, 0 no effect, 100 complete control

## CC(=O)Oc1c(C)nn(C)c(=O)c1-c1c(C)sc2c(C)cc(C)cc12 [Compound 27]
[1]; [14]
  Plant response rating, Barley, Spring: 0
[1]; [15]
  Plant response rating, Barley, Spring: 5
[1]; [16]
  Plant response rating, Barley, Spring: 10
[1]; Preemergence, 31 g ai/ha
  Plant response rating (scale of 0 to 100), Barley, Spring: 0
[1]; [17]
  Plant response rating, Barley, Spring: 0
[1]; [18]
  Plant response rating, Barley, Spring: 0
[1]; [19]
  Barley, Spring plant response rating: 0
[1]; [20]
  Plant response rating, Barley, Spring: 0
[2]; [14]
  Plant response rating, Barley, Winter: 0
[2]; [15]
  Plant response rating, Barley, Winter: 5
[2]; [16]
  Plant response rating, Barley, Winter: 5
[2]; Preemergence, 31 g ai/ha
  Plant response rating (scale of 0 to 100), Barley, Winter: 0
[2]; [17]
  Plant response rating, Barley, Winter: 0
[2]; [18]
  Plant response rating, Barley, Winter: 10
[2]; [19]
  Barley, Winter plant response rating: 15
[2]; [20]
  Plant response rating, Barley, Winter: 0
[3]; [14]
  Blackgrass plant response rating: 75
[3]; [15]
  Plant response rating, Blackgrass: 90
[3]; [16]
  Plant response rating, Blackgrass: 90
[3]; Preemergence, 31 g ai/ha
  Plant response rating (scale of 0 to 100), Blackgrass: 85
[3]; [17]
  Plant response rating, Blackgrass: 90
[3]; [18]
  Plant response rating, Blackgrass: 95
[3]; [19]
  Blackgrass plant response rating: 100
[3]; [20]
  Plant response rating, Blackgrass: 80
[4]; [14]
  Bromegrass, Downy plant response rating: 15
[4]; [15]
  Plant response rating, Bromegrass, Downy: 55
[4]; [16]
  Plant response rating, Bromegrass, Downy: 70
[4]; Preemergence, 31 g ai/ha
  Plant response rating (scale of 0 to 100), Bromegrass, Downy: 35
[4]; [17]
  Plant response rating, Bromegrass, Downy: 55
[4]; [18]
  Plant response rating, Bromegrass, Downy: 85
[4]; [19]
  Plant response rating, Bromegrass, Downy: 85
[4]; [20]
  Plant response rating, Bromegrass, Downy: 25
[5]; [14]
  Chamomile plant response rating: 80
[5]; [15]
  Plant response rating, Chamomile: 95
[5]; [16]
  Plant response rating, Chamomile: 100
[5]; Preemergence, 31 g ai/ha
  Plant response rating (scale of 0 to 100), Chamomile: 100
[5]; [17]
  Plant response rating, Chamomile: 100
[5]; [18]
  Plant response rating, Chamomile: 100
[5]; [19]
  Plant response rating, Chamomile: 100
[5]; [20]
  Plant response rating, Chamomile: 90
[6]; [14]
  Chickweed plant response rating: 95
[6]; [15]
  Plant response rating, Chickweed: 100
[6]; [16]
  Plant response rating, Chickweed: 100
[6]; Preemergence, 31 g ai/ha
  Plant response rating (scale of 0 to 100), Chickweed: 100
[6]; [17]
  Plant response rating, Chickweed: 100
[6]; [18]
  Plant response rating, Chickweed: 100
[6]; [19]
  Plant response rating, Chickweed: 100
[6]; [20]
  Plant response rating, Chickweed: 100
[7]; [14]
  Deadnettle plant response rating: 5
[7]; [15]
  Plant response rating, Deadnettle: 30
[7]; [16]
  Plant response rating, Deadnettle: 60
[7]; Preemergence, 31 g ai/ha
  Plant response rating (scale of 0 to 100), Deadnettle: 0
[7]; [17]
  Plant response rating, Deadnettle: 0
[7]; [18]
  Plant response rating, Deadnettle: 55
[7]; [19]
  Plant response rating, Deadnettle: 80
[7]; [20]
  Plant response rating, Deadnettle: 5
[8]; [14]
  Field Poppy plant response rating: 85
[8]; [15]
  Plant response rating, Field Poppy: 100
[8]; [16]
  Plant response rating, Field Poppy: 100
[8]; Preemergence, 31 g ai/ha
  Plant response rating (scale of 0 to 100), Field Poppy: 100
[8]; [17]
  Plant response rating, Field Poppy: 100
[8]; [18]
  Plant response rating, Field Poppy: 100
[8]; [19]
  Plant response rating, Field Poppy: 100
[8]; [20]
  Plant response rating, Field Poppy: 100
[9]; [14]
  Foxtail, Green plant response rating: 70
[9]; [15]
  Plant response rating, Foxtail, Green: 80
[9]; [16]
  Plant response rating, Foxtail, Green: 80
[9]; Preemergence, 31 g ai/ha
  Plant response rating (scale of 0 to 100), Foxtail, Green: 95
[9]; [17]
  Plant response rating, Foxtail, Green: 95
[9]; [18]
  Plant response rating, Foxtail, Green: 100
[9]; [19]
  Plant response rating, Foxtail, Green: 100
[9]; [20]
  Plant response rating, Foxtail, Green: 80
[10]; [14]
  Lambsquarters plant response rating: 80
[10]; [15]
  Plant response rating, Lambsquarters: 85
[10]; [16]
  Plant response rating, Lambsquarters: 85
[10]; Preemergence, 31 g ai/ha
  Plant response rating (scale of 0 to 100), Lambsquarters: 100
[10]; [17]
  Plant response rating, Lambsquarters: 100
[10]; [18]
  Plant response rating, Lambsquarters: 100
[10]; [19]
  Plant response rating, Lambsquarters: 100
[10]; [20]
  Plant response rating, Lambsquarters: 85
[11]; [14]
  Ryegrass, Italian plant response rating: 80
[11]; [15]
  Plant response rating, Ryegrass, Italian: 85
[11]; [16]
  Plant response rating, Ryegrass, Italian: 85
[11]; Preemergence, 31 g ai/ha
  Plant response rating (scale of 0 to 100), Ryegrass, Italian: 90
[11]; [17]
  Plant response rating, Ryegrass, Italian: 100
[11]; [18]
  Plant response rating, Ryegrass, Italian: 100
[11]; [19]
  Plant response rating, Ryegrass, Italian: 100
[11]; [20]
  Plant response rating, Ryegrass, Italian: 85
[12]; [14]
  Wheat, Spring plant response rating: 0
[12]; [15]
  Plant response rating, Wheat, Spring: 10
[12]; [16]
  Plant response rating, Wheat, Spring: 20
[12]; Preemergence, 31 g ai/ha
  Plant response rating (scale of 0 to 100), Wheat, Spring: 0
[12]; [17]
  Plant response rating, Wheat, Spring: 0
[12]; [18]
  Plant response rating, Wheat, Spring: 5
[12]; [19]
  Plant response rating, Wheat, Spring: 25
[12]; [20]
  Plant response rating, Wheat, Spring: 5
[13]; [14]
  Wheat, Winter plant response rating: 0
[13]; [15]
  Plant response rating, Wheat, Winter: 5
[13]; [16]
  Plant response rating, Wheat, Winter: 10
[13]; Preemergence, 31 g ai/ha
  Plant response rating (scale of 0 to 100), Wheat, Winter: 0
[13]; [17]
  Plant response rating, Wheat, Winter: 0
[13]; [18]
  Plant response rating, Wheat, Winter: 0
[13]; [19]
  Plant response rating, Wheat, Winter: 5
[13]; [20]
  Plant response rating, Wheat, Winter: 5
